Common to all, as to assay: NCI anticancer screen, dose series, 48 h
The subject of test [1] is SK-MEL-28.
In test [2] the test system is M19-MEL.
In test [3] the test system is OVCAR-8.
For test [4], the system named is SNB-78.
Test [5] relates to DLD-1.
Test [6] relates to HOP-62.
The subject of test [7] is HCT-15.
Test [8] concerns SF-539.
For test [9], the system named is KM-20L2.
In test [10] the test system is RPMI-8226.
Test [11] concerns SK-MEL-2.
Test [12] relates to SF-295.
Test [13] relates to MOLT-4.
For test [14], the system named is LOX IMVI.
Test [15] concerns DU-145.
The subject of test [16] is BT-549.
The test system of test [17] is MDA-N.
Test [18] concerns MDA-MB-435.
The subject of test [19] is MDA-MB-231.
The test system of test [20] is LXFL 529.

Structures are written as SMILES.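 Five compound concentrations were applied to cells in 96-well plates for 48 hours; endpoints were derived by simple linear interpolation of the resulting dose-response curve. GI50 is the concentration that inhibits growth by half.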 Activity calls are given as the source filed them. Rule as the data show it: active = GI50 up to about 1.1 µM and inactive = higher.

For the molecule `Cc1c2cnccc2c(C)c2c1c1ccccc1n2CCCCCCNCc1ccccc1`, the GI50 in test [1] was 2.38 µM (inactive); in [2] it was 2.09 µM (inactive); in [3], 0.883 µM (active); in test [4] it was 1.96 µM (inactive); in test [5], 0.879 µM (active); in [6], 4.17 µM (inactive). Moreover, the GI50 was 1.31 µM in [7]; 1.87 µM (inactive) in [8]; 1.49 µM (inactive) in [9]; 0.766 µM (active) in test [10]; 2.22 µM (inactive) in test [11]; 1.82 µM (inactive) in [12]. Further, the GI50 is 0.167 µM (active) in [13] and 1.07 µM (active) in test [14].

Regarding `Cc1cnc(/C=N\NC(N)=S)c2cccc(N)c12`, the GI50 was 0.411 µM (active) in test [15]; 3.27 µM (inactive) in test [1]; 0.536 µM (active) in test [16]; 0.838 µM (active) in test [3]; 0.904 µM (active) in [6]; 0.78 µM in [7]. The GI50 was 0.676 µM (active) in [8]; 0.767 µM (active) in test [17]; 1.48 µM (inactive) in [18]; 0.714 µM (active) in test [10]; 1.52 µM (inactive) in test [19]; 2.1 µM (inactive) in test [11]. The GI50 is 1.97 µM (inactive) in test [12], 0.34 µM (active) in [13] and 0.445 µM (active) in [14].

With `O=C1C(Cl)N(c2ccccc2)C1c1c[nH]c2ccccc12` (stereo not given), the GI50 in test [1], in test [2], in [3], in test [6], in test [8] and in test [9] was > 100 µM (inactive) in each case. Further, the GI50 in test [10], in [11], in test [20], in test [12] and in test [13] was > 100 µM (inactive) throughout.

`COC(OC)C1OC(CO)C(n2cc(F)c(=O)[nH]c2=O)C1O` (stereo not given): the GI50 in test [15] was 21.4 µM (inactive); in test [1], > 100 µM (inactive); in [16], > 100 µM (inactive); in [3] it was > 100 µM (inactive); in test [6], > 100 µM (inactive); in [7], more than 100 µM. The GI50 in test [8], in test [17], in test [18], in test [10], in [19] and in test [11] was > 100 µM (inactive) throughout. For the same molecule, the GI50 in test [12], in test [13] and in test [14] was > 100 µM (inactive) throughout.

For `COc1ccc2c(c1)CC1Cc3ccccc3CCN1C2` (stereo not given), the GI50 was 61.2 µM (inactive) in test [15]; > 100 µM (inactive) in test [1]; > 100 µM (inactive) in test [16]; > 100 µM (inactive) in test [3]; 6.14 µM (inactive) in [6]; 61.2 µM in test [7]. Also, the GI50 was 31.1 µM (inactive) in test [8]; 47.9 µM (inactive) in [17]; 34.2 µM (inactive) in test [18]; 39.5 µM (inactive) in test [10]; 6.65 µM (inactive) in test [19]; 44 µM (inactive) in test [11]. The GI50 in test [12] is 29.2 µM (inactive); in test [13], 80.5 µM (inactive); in [14], 20 µM (inactive).

In the case of `COP(=O)(OC)/C(=C/c1cn(C(C)=O)c2ccccc12)NC(C)=O`, the GI50 is > 100 µM (inactive) in test [15]; 36.4 µM (inactive) in test [1]; 32.2 µM (inactive) in [3]; 41.3 µM (inactive) in test [6]; 18.1 µM in test [7]; 13.8 µM (inactive) in [17]. For the same molecule, the GI50 in test [18] was 4.62 µM (inactive); in test [10] it was 12.6 µM (inactive); in test [19] it was 36.1 µM (inactive); in test [11], 2.18 µM (inactive); in test [12] it was 37.2 µM (inactive); in [13] it was > 10 µM (inactive). In addition, in test [14], the GI50 was 13 µM (inactive).

Regarding `COc1nc2ccc(CNc3ccc(C(=O)NC(CCC(=O)O)C(=O)O)cc3)cc2nc1OC` (stereo not given), the GI50 is > 100 µM (inactive) in [15]; > 100 µM (inactive) in test [1]; > 100 µM (inactive) in [16]; > 100 µM (inactive) in [3]; > 100 µM (inactive) in [6]; 53.1 µM in [7]. Also, the GI50 in test [17], in test [18], in test [10], in [19], in test [11] and in [12] was > 100 µM (inactive) in each case. For the same molecule, the GI50 is 18.8 µM (inactive) in [13] and 32.8 µM (inactive) in test [14].

As for `CC(=O)OCC1OC(n2c(-c3ccc(C)cc3)cc(-c3ccco3)c(C#N)c2=S)C(OC(C)=O)C(OC(C)=O)C1OC(C)=O` (stereo not given), the GI50 in test [15] is > 100 µM (inactive); in test [1], > 100 µM (inactive); in test [16], 38.7 µM (inactive); in test [3] it was 25.8 µM (inactive); in test [6], 42.7 µM (inactive); in test [7], more than 100 µM. Further, the GI50 was 17.4 µM (inactive) in test [8]; > 100 µM (inactive) in test [17]; > 100 µM (inactive) in [18]; > 100 µM (inactive) in test [10]; 22.9 µM (inactive) in [19]; 41.7 µM (inactive) in [11]. The GI50 in test [12], in [13] and in [14] was > 100 µM (inactive) each time.

For the molecule `O=[N+]([O-])C(=C/c1ccccc1)/C(=C\c1ccccc1)[N+](=O)[O-]`, the GI50 in test [15] was 16.1 µM (inactive); in [1], 15.9 µM (inactive); in test [16], 17.6 µM (inactive); in test [3] it was 20 µM (inactive); in test [6], 19.1 µM (inactive); in test [8], 1.6 µM (inactive). The GI50 is 17.1 µM (inactive) in [17]; 16.5 µM (inactive) in test [18]; 10.3 µM (inactive) in test [10]; 13.2 µM (inactive) in test [19]; 20.1 µM (inactive) in test [11]; 18.7 µM (inactive) in test [12]. The GI50 is 3.2 µM (inactive) in test [13] and 14.7 µM (inactive) in [14].

Turning to `COc1cc2c(cc1OC)-c1cc3ccccc3c(=O)n1CC2`, the GI50 in [15] was 25.6 µM (inactive); in test [1], 27.7 µM (inactive); in test [16] it was 29.2 µM (inactive); in [3], 29 µM (inactive); in [6], 5.19 µM (inactive); in test [8], 14.1 µM (inactive). For the same molecule, the GI50 in test [17] is 28.2 µM (inactive); in test [18], 22.8 µM (inactive); in test [10], 13.7 µM (inactive); in [19], 2.17 µM (inactive); in test [11] it was 11.7 µM (inactive); in [12], 15.3 µM (inactive). The GI50 in test [13] was 26.1 µM (inactive); in test [14] it was 10.3 µM (inactive).

As for `c1ccc(/N=C2\SC3=NCCN3\C2=N/c2ccccc2)cc1`, the GI50 is 13.2 µM (inactive) in [15]; 17 µM (inactive) in test [1]; 15.2 µM (inactive) in [16]; 25.9 µM (inactive) in test [3]; 18.7 µM (inactive) in test [6]; 10 µM in [7]. In addition, the GI50 was 15.7 µM (inactive) in [17]; 15.6 µM (inactive) in test [18]; 16.3 µM (inactive) in [10]; 22.9 µM (inactive) in [19]; 19.9 µM (inactive) in test [11]; 17.5 µM (inactive) in [12]. The GI50 in test [13] was 3.47 µM (inactive).

Regarding `Cc1ccc(S(N)(C(=O)Nc2cccc3ccccc23)[N+](=O)[O-])cc1` (stereo not given), the GI50 is 68.2 µM (inactive) in test [15]; > 100 µM (inactive) in test [1]; > 100 µM (inactive) in test [16]; > 100 µM (inactive) in [3]; > 100 µM (inactive) in test [6]; more than 100 µM in [7]. The GI50 in test [17] was > 100 µM (inactive); in test [18], > 100 µM (inactive); in test [10] it was 48.6 µM (inactive); in test [19], 36.6 µM (inactive); in [11] it was > 100 µM (inactive); in test [12], 89.7 µM (inactive). For the same molecule, the values for the GI50 in test [13] and in test [14] were 29.5 µM (inactive) and > 100 µM (inactive), respectively.

Consider `COc1cc(Br)c(CC2C3=C(CCN2C(=O)C2CCC2)CC(=O)CC3)cc1O` (stereo not given), for which the GI50 is 49.4 µM (inactive) in test [15]; 46.7 µM (inactive) in test [1]; 38 µM (inactive) in test [3]; 44.2 µM (inactive) in test [6]; 18.7 µM in [7]; 46.2 µM (inactive) in test [8]. The GI50 is 19.6 µM (inactive) in test [17]; 17.1 µM (inactive) in [18]; 32.7 µM (inactive) in test [10]; 26.5 µM (inactive) in test [19]; 36.1 µM (inactive) in [11]; 33.5 µM (inactive) in test [12]. In addition, the GI50 in test [13] was 26.1 µM (inactive); in test [14], 47.8 µM (inactive).

`NC1(C(=O)O)CCCC1` [CYCLOLEUCINE]: the GI50 is > 625 µM (inactive) in test [1]; > 625 µM (inactive) in test [2]; > 625 µM (inactive) in test [3]; > 244 µM (inactive) in [4]; > 625 µM (inactive) in [5]; > 625 µM (inactive) in test [6]. Further, the GI50 in test [7] was more than 625 µM; in test [8] it was > 625 µM (inactive); in test [9], > 625 µM (inactive); in test [10], > 625 µM (inactive); in [11], > 625 µM (inactive); in [12], > 625 µM (inactive). For the same molecule, the GI50 in [13] and in [14] was > 625 µM (inactive) in each case.

The record behind these values is ChEMBL document CHEMBL1201862, “PubChem BioAssay data set” (2004).
